What was measured:
[1] = system: MCF7; assay: Promotion of cell proliferation in human MCF7 cells; type: functional, cell-based
[2] = target: T1, Estrogen receptor (Homo sapiens, UniProt P03372); assay: Agonist activity at human ERalpha expressed in african green monkey CV1 cells by luciferase reporter gene assay relative to 17beta estradiol; type: functional, cell-based, CV-1
T1 sequence (P03372 whole entry): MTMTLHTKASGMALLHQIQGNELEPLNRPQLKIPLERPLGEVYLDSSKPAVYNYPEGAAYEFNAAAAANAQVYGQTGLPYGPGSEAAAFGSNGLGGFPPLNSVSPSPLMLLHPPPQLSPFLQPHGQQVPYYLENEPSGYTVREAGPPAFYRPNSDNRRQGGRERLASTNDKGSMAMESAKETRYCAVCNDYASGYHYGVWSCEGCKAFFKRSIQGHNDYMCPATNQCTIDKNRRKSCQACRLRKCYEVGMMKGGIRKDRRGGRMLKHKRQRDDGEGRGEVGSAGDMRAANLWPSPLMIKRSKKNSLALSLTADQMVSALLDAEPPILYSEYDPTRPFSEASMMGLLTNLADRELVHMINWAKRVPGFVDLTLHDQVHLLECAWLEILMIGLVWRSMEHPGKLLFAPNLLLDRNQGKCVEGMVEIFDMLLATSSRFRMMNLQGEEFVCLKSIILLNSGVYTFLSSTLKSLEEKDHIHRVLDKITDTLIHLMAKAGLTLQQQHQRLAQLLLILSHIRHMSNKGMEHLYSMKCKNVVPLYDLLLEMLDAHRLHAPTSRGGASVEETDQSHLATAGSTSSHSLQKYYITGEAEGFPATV

[3] = system: HeLa; assay: Antiproliferative effect against human HeLa cells after 69 hrs by MTT assay; type: functional, cell-based
[4] = system: HL-60; assay: Antiproliferative effect against human HL60 cells after 69 hrs; type: functional, cell-based; conditions: HL-60, 69 h
[5] = system: MCF7; assay: Growth inhibition of human MCF7 cells at 20 uM after 72 hrs by MTT assay; type: functional; conditions: MCF7, 72 h, read-out: GI
[6] = system: HL-60; assay: Growth inhibition of human HL60 cells at 20 uM after 69 hrs; type: functional; conditions: HL-60, 69 h, read-out: GI
[7] = system: HeLa; assay: Growth inhibition of human HeLa cells at 20 uM after 69 hrs by MTT assay; type: functional; conditions: read-out: GI
[8] = system: MCF7; assay: Antiproliferative effect against human MCF7 cells after 72 hrs by MTT assay; type: functional, cell-based; conditions: MCF7, 72 h

EC50 [1] [µM] | EC50 [2] [µM] | IC50 [3] [µM] | IC50 [4] [µM] | IC50 [8] [µM] | SMILES | inhibition of growth at 20 µM [5] [%] | inhibition of growth at 20 µM [6] [%] | inhibition of growth at 20 µM [7] [%]
0.142 | 3.1 |  |  |  | COc1cc([C@H]2O[C@@H](c3cc(OC)c4c(c3)OCO4)[C@@H](CO)[C@@H]2COC(C)=O)cc2c1OCO2 |  |  | 
 |  |  | 10.8 |  | COc1cc(C(c2cc(OC)c3c(c2)OCO3)[C@@H]2COC(=O)[C@H]2C)cc(O)c1OC (relative stereo) | 53.2 | 92 | 10
 |  | 11.1 | 1.8 | 3.9 | C=C1C(=O)OC[C@H]1C(c1cc(OC)c2c(c1)OCO2)c1cc(OC)c2c(c1)OCO2 [PEPEROMIN E] | 90.7 | 93 | 95

Continued, compound first:

SMILES | EC50 [1] [µM] | EC50 [2] [µM] | IC50 [3] [µM] | IC50 [4] [µM] | IC50 [8] [µM] | inhibition of growth at 20 µM [5] [%] | inhibition of growth at 20 µM [6] [%] | inhibition of growth at 20 µM [7] [%]
C=C1C(=O)OCC1C(c1cc(OC)c(OC)c(OC)c1)c1cc(OC)c2c(c1)OCO2 (stereo not given) |  |  | 9.1 | 1.4 | 3.8 | 91 | 92 | 96
COc1cc(OC)c(C2CCC(=O)c3c(OC)cc(OC)c(OC)c32)cc1OC (stereo not given) |  |  |  |  |  | 37.6 | < 5 | < 5
COc1cc([C@@H]2c3cc4c(cc3[C@@H](O[C@@H]3O[C@@H]5CO[C@@H](C)O[C@H]5[C@H](O)[C@H]3O)[C@H]3COC(=O)[C@H]23)OCO4)cc(OC)c1O [ETOPOSIDE] |  |  | 3.6 | 0.21 | 0.19 | 73.5 | 93.5 | 85.3
COc1cc(C(c2cc(OC)c3c(c2)OCO3)[C@@H]2COC(=O)[C@H]2C)cc2c1OCO2 [PEPEROMIN A] |  |  |  |  |  | 27.7 | 17 | < 5

Reference: ChEMBL document CHEMBL1157251, “Bioactive compounds from Peperomia pellucida” (J Nat Prod, 2006)
